Data taken from ChEMBL document CHEMBL1155409, “Ultrasmall particle of iron oxide--RGD peptidomimetic conjugate: synthesis and characterisation” (Bioorg Med Chem Lett, 2010).

Target: Integrin alpha-V/beta-3 (Homo sapiens)
Test: Inhibition of human Integrin alphaVbeta3 isolated receptors assessed by standard competitive binding assay

| IC50 [nM] | Compound |
| --- | --- |
| 0.7 | NCCOCCOCCOCCOCCOCCOCC(=O)Nc1cc(C[C@H](NS(=O)(=O)c2cccc(C(F)(F)F)c2)C(=O)O)ccc1OCCCc1ccc2c(n1)NCCC2 |
| 0.3 | COCCOCCOCCOCC(=O)Nc1cc(C[C@H](NS(=O)(=O)c2cccc(C(F)(F)F)c2)C(=O)O)ccc1OCCCc1ccc2c(n1)NCCC2 |
| 0.1 | Nc1cc(C[C@H](NS(=O)(=O)c2cccc(C(F)(F)F)c2)C(=O)O)ccc1OCCCc1ccc2c(n1)NCCC2 |
